# Source: patent publication US9550796B2, “Pyrrolopyrrolone derivatives and their use as BET inhibitors” (NOVARTIS AG, priority 2013, dated 2017)
# What was measured:
# [1] = system: MV-4-11; assay: Cell growth inhibition assay (CellTiter-Glo), MV-4-11; format: cell-based, human; details: MV-4-11 cells, 4 days; for GI50: Homo sapiens, MV4-11, 96 h, half-maximal growth inhibition; for MV-4-11 TGI: total growth inhibition
# Method in brief: (§1)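 Seed cells in their own media; add compound as 3-fold dilutions from 10 μM (0.1% DMSO final). Incubate 4 days at 37 °C, 5% CO2, then add CTG and read luminescence. Subtract no-cell background, correct to a day 0 plate, and fit IC50 and TGI.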
# [2] = target: CREBBP (Homo sapiens (Human), UniProt Q92793); assay: AlphaScreen in-vitro binding assay for CREBBP; details: 324 nM His-CREBBP (1081-1197), acetyl-histone H4 (AcK 5, 8, 12) peptide
# Method in brief: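 IC50 values were derived by non-linear regression of percent inhibition across 8 compound concentrations. Protein was His-tagged CREBBP bromodomain (1081-1197), peptide acetyl-histone H4 (AcK 5, 8, 12), in HEPES pH 7.5 buffer. Read-out was AlphaScreen with Ni-chelate acceptor and streptavidin donor beads, 35 min at 30° C then 60 min at RT.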
# [3] = target: BRD2 (Homo sapiens (Human), UniProt P25440); assay: TR-FRET in-vitro binding assay for BRD2; details: 45 nM His-Brd2(60-472), acetyl-histone H4 (AcK 5, 8, 12, 16) peptide
# Method in brief: (§2)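 TR-FRET binding read after 35 min incubation at 30° C. Compounds dispensed from 90% DMSO solutions and tested at 8 concentrations in a 13.55 μL total reaction volume.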
# [4] = system: THP-1; assay: Cell growth inhibition assay (CellTiter-Glo), THP-1; format: cell-based, human; details: THP-1 cells, 4 days; for GI50: Homo sapiens, 96 h, half-maximal growth inhibition; for THP-1 TGI: total growth inhibition
# Method in brief: as §1
# [5] = target: BRD3 (Homo sapiens (Human), UniProt Q15059); assay: TR-FRET in-vitro binding assay for BRD3; details: 45 nM His-Brd3(20-477), acetyl-histone H4 (AcK 5, 8, 12, 16) peptide
# Method in brief: as §2
# [6] = system: K-562; assay: Cell growth inhibition assay (CellTiter-Glo), K-562; format: cell-based, human; details: K-562 cells, 4 days; for GI50: Homo sapiens, K562, 96 h, half-maximal growth inhibition; for K-562 TGI: total growth inhibition
# Method in brief: as §1
# [7] = target: BRD4 (Homo sapiens (Human), UniProt O60885); assay: TR-FRET in-vitro binding assay for BRD4; details: 45 nM His-Brd4(44-477), acetyl-histone H4 (AcK 5, 8, 12, 16) peptide
# Method in brief: as §2
# Sequence of CREBBP (Q92793 1081-1197): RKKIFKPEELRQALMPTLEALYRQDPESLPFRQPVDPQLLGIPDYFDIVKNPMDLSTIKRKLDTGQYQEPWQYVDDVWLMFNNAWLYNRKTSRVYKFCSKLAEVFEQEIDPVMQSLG
# Sequence of BRD3 (Q15059 20-477): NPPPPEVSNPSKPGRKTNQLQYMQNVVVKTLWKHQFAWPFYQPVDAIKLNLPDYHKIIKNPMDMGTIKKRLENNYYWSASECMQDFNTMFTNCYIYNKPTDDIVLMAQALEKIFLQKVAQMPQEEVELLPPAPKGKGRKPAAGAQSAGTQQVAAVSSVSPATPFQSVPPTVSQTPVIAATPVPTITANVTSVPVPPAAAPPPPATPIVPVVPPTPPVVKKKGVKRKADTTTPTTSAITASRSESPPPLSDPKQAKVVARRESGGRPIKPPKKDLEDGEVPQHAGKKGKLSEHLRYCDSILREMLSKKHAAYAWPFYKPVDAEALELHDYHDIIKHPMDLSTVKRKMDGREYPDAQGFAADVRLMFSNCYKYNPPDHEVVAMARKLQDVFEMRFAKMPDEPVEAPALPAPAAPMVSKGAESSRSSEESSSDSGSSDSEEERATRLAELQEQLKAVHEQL
# Sequence of BRD2 (P25440 60-472): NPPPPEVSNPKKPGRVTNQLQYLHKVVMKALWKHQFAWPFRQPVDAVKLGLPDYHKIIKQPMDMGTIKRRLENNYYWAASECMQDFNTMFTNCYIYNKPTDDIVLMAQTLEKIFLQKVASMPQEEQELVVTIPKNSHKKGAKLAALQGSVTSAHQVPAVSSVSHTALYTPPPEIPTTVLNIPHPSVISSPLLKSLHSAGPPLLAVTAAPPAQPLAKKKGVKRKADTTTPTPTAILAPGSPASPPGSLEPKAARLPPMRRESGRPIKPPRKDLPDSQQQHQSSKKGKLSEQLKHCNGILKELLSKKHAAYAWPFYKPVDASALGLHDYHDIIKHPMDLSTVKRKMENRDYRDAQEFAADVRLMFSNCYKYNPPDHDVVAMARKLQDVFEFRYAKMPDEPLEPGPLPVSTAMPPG
Compound,GI50 [1],IC50 [2],IC50 [3],GI50 [4],IC50 [5],GI50 [6],IC50 [7],MV-4-11 TGI [1],THP-1 TGI [4],K-562 TGI [6]
"COc1ncccc1-c1cc2c(n1C)C(c1ccc(Cl)cc1)N(c1cc(C)c3nnc(C)n3c1)C2=O (centres unmarked) [Example 30, 6-(4-chlorophenyl)-5-(3,8-dimethyl-[1,2,4]triazolo[4,3-a]pyridin-6-yl)-2-(2-methoxypyridin-3-yl)-1-methyl-5,6-dihydropyrrolo[3,4-b]pyrrol-4(1H)-one]",11.2 nM,1300 nM,50 nM,19.8 nM,47 nM,57.2 nM,40 nM,21.3 nM,39.05 nM,>10000 nM
"Cc1cc(N2C(=O)c3cc(C4=CCOCC4)n(C)c3C2c2ccc(Cl)cc2)cn2c(C)nnc12 (centres unmarked) [Example 31, 6-(4-chlorophenyl)-2-(3,6-dihydro-2H-pyran-4-yl)-5-(3,8-dimethyl-[1,2,4]triazolo[4,3-a]pyridin-6-yl)-1-methyl-5,6-dihydropyrrolo[3,4-b]pyrrol-4(1H)-one]",13.3 nM,3100 nM,62 nM,30.9 nM,47 nM,57.2 nM,36 nM,23.7 nM,52.5 nM,>10000 nM
"Cc1cn(C)c2c1C(=O)N(c1cc(C)c3nnn(C)c3n1)C2c1ccc(Cl)cc1 (centres unmarked) [Example 32, 6-(4-chlorophenyl)-5-(3,7-dimethyl-3H-[1,2,3]triazolo[4,5-b]pyridin-5-yl)-1,3-dimethyl-5,6-dihydropyrrolo[3,4-b]pyrrol-4(1H)-one]",111 nM,> 37000 nM,160 nM,174 nM,100 nM,430 nM,110 nM,203.5 nM,343 nM,>10000 nM
"Cc1cc(N2C(=O)c3c(C4CC4)cn(C)c3C2c2ccc(Cl)cc2)cn(C)c1=O (centres unmarked) [Example 37, 6-(4-chlorophenyl)-3-cyclopropyl-5-(1,5-dimethyl-6-oxo-1,6-dihydropyridin-3-yl)-1-methyl-5,6-dihydropyrrolo[3,4-b]pyrrol-4(1H)-one]",21.3 nM,1900 nM,38 nM,44.9 nM,32 nM,180 nM,37 nM,38.55 nM,98.15 nM,>10000 nM
"COc1nccc(-c2cc3c(n2C)C(c2ccc(Cl)cc2)N(c2cc(Cl)c(=O)n(C)c2)C3=O)n1 (centres unmarked) [Example 39, 5-(5-chloro-1-methyl-6-oxo-1,6-dihydropyridin-3-yl)-6-(4-chlorophenyl)-2-(2-methoxypyrimidin-4-yl)-1-methyl-5,6-dihydropyrrolo[3,4-b]pyrrol-4(1H)-one]",78.6 nM,1200 nM,280 nM,128 nM,220 nM,550 nM,305 nM,105 nM,238 nM,>10000 nM
"COc1ncc(-c2cc3c(n2C)C(c2ccc(Cl)cc2)N(c2cc(Cl)c(=O)n(C)c2)C3=O)cn1 (centres unmarked) [Example 40, 5-(5-chloro-1-methyl-6-oxo-1,6-dihydropyridin-3-yl)-6-(4-chlorophenyl)-2-(2-methoxypyrimidin-5-yl)-1-methyl-5,6-dihydropyrrolo[3,4-b]pyrrol-4(1H)-one]",83.9 nM,365 nM,72.5 nM,91.9 nM,54 nM,326 nM,78 nM,127 nM,137 nM,>10000 nM
"Cc1cc(N2C(=O)c3cc(-c4ccccn4)n(C)c3C2c2ccc(Cl)cc2)cn(C)c1=O (centres unmarked) [Example 52, 6-(4-chlorophenyl)-5-(1,5-dimethyl-6-oxo-1,6-dihydropyridin-3-yl)-1-methyl-2-(pyridin-2-yl)-5,6-dihydropyrrolo[3,4-b]pyrrol-4(1H)-one]",872 nM,720 nM,67 nM,776 nM,54 nM,2750 nM,55.3 nM,2355 nM,2630 nM,>10000 nM
"Cn1cc(N2C(=O)c3cc(-c4cccc(=O)n4C)n(C4CC4)c3C2c2ccc(Cl)cc2)cc(Cl)c1=O (centres unmarked) [Example 62, 5-(5-chloro-1-methyl-6-oxo-1,6-dihydropyridin-3-yl)-6-(4-chlorophenyl)-1-cyclopropyl-2-(1-methyl-6-oxo-1,6-dihydropyridin-2-yl)-5,6-dihydropyrrolo[3,4-b]pyrrol-4(1H)-one]",226 nM,270 nM,140 nM,758 nM,130 nM,1030 nM,170 nM,329 nM,1190 nM,>10000 nM

# Now from value to compound, other results behind:
GI50 [1],IC50 [2],IC50 [3],GI50 [4],IC50 [5],GI50 [6],IC50 [7],Compound,MV-4-11 TGI [1],THP-1 TGI [4],K-562 TGI [6]
78.7 nM,535 nM,83 nM,167 nM,65.5 nM,517 nM,85 nM,"Cn1c(-c2ccn(C)c(=O)c2)cc2c1C(c1ccc(Cl)cc1)N(c1cc(Cl)c(=O)n(C)c1)C2=O (centres unmarked) [Example 41, 5-(5-chloro-1-methyl-6-oxo-1,6-dihydropyridin-3-yl)-6-(4-chlorophenyl)-1-methyl-2-(1-methyl-2-oxo-1,2-dihydropyridin-4-yl)-5,6-dihydropyrrolo[3,4-b]pyrrol-4(1H)-one]",128 nM,307 nM,>10000 nM
183 nM,690 nM,90 nM,276 nM,77 nM,934 nM,120 nM,"Cn1c(-c2cccn(C)c2=O)cc2c1C(c1ccc(Cl)cc1)N(c1cc(Cl)c(=O)n(C)c1)C2=O (centres unmarked) [Example 43, 5-(5-chloro-1-methyl-6-oxo-1,6-dihydropyridin-3-yl)-6-(4-chlorophenyl)-1-methyl-2-(1-methyl-2-oxo-1,2-dihydropyridin-3-yl)-5,6-dihydropyrrolo[3,4-b]pyrrol-4(1H)-one]",310 nM,492 nM,>10000 nM
264 nM,310 nM,54 nM,1420 nM,41 nM,2590 nM,66 nM,"Cn1c(-c2cccc(=O)n2C)cc2c1C(c1ccc(Cl)cc1)N(c1cc(Cl)c(=O)n(C)c1)C2=O (centres unmarked) [Example 44, 5-(5-chloro-1-methyl-6-oxo-1,6-dihydropyridin-3-yl)-6-(4-chlorophenyl)-1-methyl-2-(1-methyl-6-oxo-1,6-dihydropyridin-2-yl)-5,6-dihydropyrrolo[3,4-b]pyrrol-4(1H)-one]",391 nM,2700 nM,>10000 nM
165 nM,280 nM,19 nM,525 nM,16 nM,1600 nM,14 nM,"Cc1cc(N2C(=O)c3cc(-c4ccc(=O)n(C)c4)n(C)c3C2c2ccc(Cl)cc2)cn(C)c1=O (centres unmarked) [Example 46, 6-(4-chlorophenyl)-5-(1,5-dimethyl-6-oxo-1,6-dihydropyridin-3-yl)-1-methyl-2-(1-methyl-6-oxo-1,6-dihydropyridin-3-yl)-5,6-dihydropyrrolo[3,4-b]pyrrol-4(1H)-one]",292 nM,1070 nM,>10000 nM
98.4 nM,690 nM,110 nM,195 nM,82 nM,698 nM,140 nM,"Cc1cc(N2C(=O)c3cc(-c4cccn(C)c4=O)n(C)c3C2c2ccc(Cl)cc2)cn(C)c1=O (centres unmarked) [Example 47, 6-(4-chlorophenyl)-5-(1,5-dimethyl-6-oxo-1,6-dihydropyridin-3-yl)-1-methyl-2-(1-methyl-2-oxo-1,2-dihydropyridin-3-yl)-5,6-dihydropyrrolo[3,4-b]pyrrol-4(1H)-one]",156 nM,351 nM,>10000 nM
74 nM,940 nM,80 nM,86.3 nM,78 nM,297 nM,72 nM,"COc1cccc(-c2cc3c(n2C)C(c2ccc(Cl)cc2)N(c2cc(C)c(=O)n(C)c2)C3=O)n1 (centres unmarked) [Example 59, 6-(4-chlorophenyl)-5-(1,5-dimethyl-6-oxo-1,6-dihydropyridin-3-yl)-2-(6-methoxypyridin-2-yl)-1-methyl-5,6-dihydropyrrolo[3,4-b]pyrrol-4(1H)-one]",106 nM,136 nM,>10000 nM
